Experimental data from patent US8471005B2 (Cephalon, Inc., priority 2008, dated 2013).

Columns and labels:
JAK2 = biological target: T1, JAK2 (Homo sapiens, UniProt O60674); assay: Recombinant Human JAK2 Kinase Assay (TRF); format: biochemical; conditions: JAK2 kinase inhibition, 0.2 μM ATP; read-out: JAK2 Potency
T1 construct: host or cells: baculovirus expression system
How it was run: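 Baculovirus-expressed JAK2 (15 ng/ml) phosphorylated a biotinylated 15-mer peptide captured on Neutravidin-coated plates, in 20 mM HEPES pH 7.2 with 0.2 μM ATP, 1 mM MnCl2, 0.1% BSA and 2.5% DMSO. Reaction ran 20 min at room temperature; phosphopeptide was detected by time-resolved fluorescence with Eu-N1-labelled PY100 antibody.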

ALK = biological target: T2, ALK (Homo sapiens, UniProt Q9UM73); assay: ALK Kinase Assay (ELISA/TRF, PLC-γ substrate); format: biochemical; conditions: ALK kinase inhibition, 1 μM ATP; read-out: ALK Potency
T2 construct: host or cells: baculovirus expression system
T2 sequence (Q9UM73 19-1620): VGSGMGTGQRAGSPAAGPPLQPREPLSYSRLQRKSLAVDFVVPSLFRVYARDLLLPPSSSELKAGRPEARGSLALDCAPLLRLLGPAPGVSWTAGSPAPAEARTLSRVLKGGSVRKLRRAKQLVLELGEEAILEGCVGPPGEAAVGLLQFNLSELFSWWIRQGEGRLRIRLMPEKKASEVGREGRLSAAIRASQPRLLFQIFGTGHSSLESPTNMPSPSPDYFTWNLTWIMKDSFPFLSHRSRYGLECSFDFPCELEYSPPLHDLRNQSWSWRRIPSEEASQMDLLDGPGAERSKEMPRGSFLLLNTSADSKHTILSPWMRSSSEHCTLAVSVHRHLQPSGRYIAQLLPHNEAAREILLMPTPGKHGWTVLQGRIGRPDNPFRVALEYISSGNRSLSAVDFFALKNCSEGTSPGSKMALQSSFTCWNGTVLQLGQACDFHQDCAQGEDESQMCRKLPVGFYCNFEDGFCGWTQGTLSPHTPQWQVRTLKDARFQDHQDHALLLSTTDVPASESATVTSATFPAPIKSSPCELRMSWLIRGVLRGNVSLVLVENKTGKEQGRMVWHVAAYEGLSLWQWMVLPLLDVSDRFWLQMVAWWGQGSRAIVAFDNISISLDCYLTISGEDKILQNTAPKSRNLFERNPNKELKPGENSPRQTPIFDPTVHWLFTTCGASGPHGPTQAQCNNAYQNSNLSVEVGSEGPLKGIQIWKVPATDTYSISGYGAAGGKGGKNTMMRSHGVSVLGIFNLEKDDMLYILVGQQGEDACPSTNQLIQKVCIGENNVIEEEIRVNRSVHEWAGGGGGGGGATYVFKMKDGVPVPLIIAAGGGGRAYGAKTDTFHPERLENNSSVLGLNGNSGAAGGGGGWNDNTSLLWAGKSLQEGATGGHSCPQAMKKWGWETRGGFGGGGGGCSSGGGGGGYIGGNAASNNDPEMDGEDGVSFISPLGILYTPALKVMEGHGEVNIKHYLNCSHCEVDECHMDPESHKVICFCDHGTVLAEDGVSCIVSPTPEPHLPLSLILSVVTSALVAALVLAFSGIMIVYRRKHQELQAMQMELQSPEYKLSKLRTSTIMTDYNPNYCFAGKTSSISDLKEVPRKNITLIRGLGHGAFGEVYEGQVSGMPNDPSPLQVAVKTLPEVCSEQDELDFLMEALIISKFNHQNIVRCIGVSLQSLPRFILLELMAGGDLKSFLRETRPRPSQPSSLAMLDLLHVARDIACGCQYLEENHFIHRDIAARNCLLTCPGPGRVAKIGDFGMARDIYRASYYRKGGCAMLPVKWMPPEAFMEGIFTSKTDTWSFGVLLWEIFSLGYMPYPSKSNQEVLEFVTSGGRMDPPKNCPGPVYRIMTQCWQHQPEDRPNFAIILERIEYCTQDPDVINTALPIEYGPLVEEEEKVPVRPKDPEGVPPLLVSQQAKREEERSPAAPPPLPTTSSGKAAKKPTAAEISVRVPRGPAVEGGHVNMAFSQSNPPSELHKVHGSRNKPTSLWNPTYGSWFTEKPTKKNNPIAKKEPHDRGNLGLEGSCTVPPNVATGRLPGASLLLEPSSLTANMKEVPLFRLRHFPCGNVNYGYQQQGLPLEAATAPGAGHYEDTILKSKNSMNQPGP
How it was run: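 IC50 values derive from percent inhibition plotted against log10 compound concentration and fitted to a variable-slope sigmoidal equation. The underlying reaction used 30 ng/ml ALK acting on immobilized PLC-γ (10 μg/mL in TBS) at 37° C for 15 minutes, read with Eu-N1 PT66 antibody.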

T1 sequence (O60674 whole entry): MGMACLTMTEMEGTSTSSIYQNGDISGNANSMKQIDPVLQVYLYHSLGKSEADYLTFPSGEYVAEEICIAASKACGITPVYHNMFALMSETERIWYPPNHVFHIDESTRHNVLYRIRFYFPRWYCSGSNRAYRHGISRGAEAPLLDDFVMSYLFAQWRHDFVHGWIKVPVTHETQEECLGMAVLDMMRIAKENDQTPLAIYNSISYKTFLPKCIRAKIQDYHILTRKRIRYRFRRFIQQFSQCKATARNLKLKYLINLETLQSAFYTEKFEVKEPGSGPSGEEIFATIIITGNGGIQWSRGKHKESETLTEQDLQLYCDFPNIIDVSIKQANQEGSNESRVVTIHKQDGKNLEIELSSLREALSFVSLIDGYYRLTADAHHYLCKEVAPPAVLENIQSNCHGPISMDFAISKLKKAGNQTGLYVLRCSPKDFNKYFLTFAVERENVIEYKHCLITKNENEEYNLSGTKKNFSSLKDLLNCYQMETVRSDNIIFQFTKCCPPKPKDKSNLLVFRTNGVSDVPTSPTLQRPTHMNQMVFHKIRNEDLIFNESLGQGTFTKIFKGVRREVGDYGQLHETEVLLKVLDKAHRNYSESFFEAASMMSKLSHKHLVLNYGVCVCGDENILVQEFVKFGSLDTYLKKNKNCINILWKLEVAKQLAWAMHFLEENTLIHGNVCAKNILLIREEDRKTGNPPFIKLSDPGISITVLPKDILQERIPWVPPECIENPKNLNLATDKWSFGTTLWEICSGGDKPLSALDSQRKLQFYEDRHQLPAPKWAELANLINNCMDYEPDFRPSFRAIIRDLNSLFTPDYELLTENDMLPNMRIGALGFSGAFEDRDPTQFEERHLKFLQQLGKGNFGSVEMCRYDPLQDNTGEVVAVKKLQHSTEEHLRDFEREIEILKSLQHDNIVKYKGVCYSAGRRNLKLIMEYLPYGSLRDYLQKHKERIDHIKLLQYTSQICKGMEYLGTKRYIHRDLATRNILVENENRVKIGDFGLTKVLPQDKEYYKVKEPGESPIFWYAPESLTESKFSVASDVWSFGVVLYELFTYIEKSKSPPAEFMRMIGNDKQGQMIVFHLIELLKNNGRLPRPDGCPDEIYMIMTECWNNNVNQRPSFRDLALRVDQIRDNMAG

| SMILES | IC50 (JAK2) [nM] | IC50 (ALK) [nM] |
| --- | --- | --- |
| CCS(=O)(=O)c1cccc(-c2ccc3cnc(Nc4ccc5nc(C(F)(F)F)[nH]c5c4)nn23)c1 [Example 1313, [7-(3-Ethanesulfonyl-phenyl)-pyrrolo[2,1-f][1,2,4]triazin-2-yl]-(2-trifluoromethyl-3H-benzimidazol-5-yl)-amine] | < 100 | > 10000 |
| O=S(=O)(CC1CC1)c1cccc(-c2ccc3cnc(Nc4ccc5[nH]ncc5c4)nn23)c1 [Example 1314] | < 100 | 1000 to 10000 |
| CC(C)(C)NS(=O)(=O)c1cccc(-c2ccc3cnc(Nc4ccc5[nH]ncc5c4)nn23)c1 [Example 1315, N-tert-Butyl-3-[2-(1H-indazol-5-ylamino)-pyrrolo[2,1-f][1,2,4]triazin-7-yl]-benzenesulfonamide] | < 100 | 1000 to 10000 |
| Cn1ncc2cc(Nc3ncc4ccc(-c5cccc(S(=O)(=O)NC(C)(C)C)c5)n4n3)ccc21 [Example 1316, N-tert-Butyl-3-[2-(1-methyl-1H-indazol-5-ylamino)-pyrrolo[2,1-f][1,2,4]triazin-7-yl]-benzenesulfonamide] | < 100 | 100 to 1000 |
| Cn1ncc2ccc(Nc3ncc4ccc(-c5cccc(S(=O)(=O)NC(C)(C)C)c5)n4n3)cc21 [Example 1317, N-tert-Butyl-3-[2-(1-methyl-1H-indazol-6-ylamino)-pyrrolo[2,1-f][1,2,4]triazin-7-yl]-benzenesulfonamide] | < 100 | 1000 to 10000 |
| O=S(=O)(CC1CC1)c1cccc(-c2ccc3cnc(Nc4ccc5nc(C(F)(F)F)[nH]c5c4)nn23)c1 [Example 1318, [7-(3-Cyclopropylmethanesulfonyl-phenyl)-pyrrolo[2,1-f][1,2,4]triazin-2-yl]-(2-trifluoromethyl-3H-benzimidazol-5-yl)-amine] | < 100 | > 10000 |
| O=S(=O)(CC1CC1)c1cccc(-c2ccc3cnc(Nc4ccc5nc[nH]c5c4)nn23)c1 [Example 1319, (3H-Benzimidazol-5-yl)-[7-(3-cyclopropylmethanesulfonyl-phenyl)-pyrrolo[2,1-f][1,2,4]triazin-2-yl]-amine] | < 100 | 1000 to 10000 |
| Cn1cnc2ccc(Nc3ncc4ccc(-c5cccc(S(=O)(=O)CC6CC6)c5)n4n3)cc21 [Example 1320, [7-(3-Cyclopropylmethanesulfonyl-phenyl)-pyrrolo[2,1-f][1,2,4]triazin-2-yl]-(3-methyl-3H-benzimidazol-5-yl)-amine] | < 100 | 100 to 1000 |
| Cn1ncc2ccc(Nc3ncc4ccc(-c5cccc(S(=O)(=O)CC6CC6)c5)n4n3)cc21 [Example 1321, [7-(3-Cyclopropylmethanesulfonyl-phenyl)-pyrrolo[2,1-f][1,2,4]triazin-2-yl]-(1-methyl-1H-indazol-6-yl)-amine] | < 100 | 1000 to 10000 |
| Cn1ncc2cc(Nc3ncc4ccc(-c5cccc(S(=O)(=O)CC6CC6)c5)n4n3)ccc21 [Example 1322, [7-(3-Cyclopropylmethanesulfonyl-phenyl)-pyrrolo[2,1-f][1,2,4]triazin-2-yl]-(1-methyl-1H-indazol-5-yl)-amine] | < 100 | 1000 to 10000 |
| CC(C)(C)NS(=O)(=O)c1cccc(-c2ccc3cnc(Nc4ccc5c(cnn5CCN5CCOCC5)c4)nn23)c1 [Example 1323, N-tert-Butyl-3-{2-[1-(2-morpholin-4-yl-ethyl)-1H-indazol-5-ylamino]-pyrrolo[2,1-f][1,2,4]triazin-7-yl}-benzenesulfonamide] | < 100 | 100 to 1000 |
| CC(C)(C)NS(=O)(=O)c1cccc(-c2ccc3cnc(Nc4ccc5cnn(CCN6CCOCC6)c5c4)nn23)c1 [Example 1324, N-tert-Butyl-3-{2-[1-(2-morpholin-4-yl-ethyl)-1H-indazol-6-ylamino]-pyrrolo[2,1-f][1,2,4]triazin-7-yl}-benzenesulfonamide] | < 100 | 1000 to 10000 |
| CC(C)(C)NS(=O)(=O)c1cccc(-c2ccc3cnc(Nc4ccc5c(c4)ncn5CCN4CCOCC4)nn23)c1 [Example 1325, N-tert-Butyl-3-{2-[1-(2-morpholin-4-yl-ethyl)-1H-benzimidazol-5-ylamino]-pyrrolo[2,1-f][1,2,4]triazin-7-yl}-benzenesulfonamide] | < 100 | 100 to 1000 |
| CC(C)(C)NS(=O)(=O)c1cccc(-c2ccc3cnc(Nc4ccc5ncn(CCN6CCOCC6)c5c4)nn23)c1 [Example 1326, N-tert-Butyl-3-{2-[3-(2-morpholin-4-yl-ethyl)-3H-benzimidazol-5-ylamino]-pyrrolo[2,1-f][1,2,4]triazin-7-yl}-benzenesulfonamide] | < 100 | 100 to 1000 |
| CC(C)(C)NS(=O)(=O)c1cccc(-c2ccc3cnc(Nc4ccc5cn[nH]c5c4)nn23)c1 [Example 1327, N-tert-Butyl-3-[2-(1H-indazol-6-ylamino)-pyrrolo[2,1-f][1,2,4]triazin-7-yl]-benzenesulfonamide] | < 100 | 1000 to 10000 |
| CCc1nc2ccc(Nc3ncc4ccc(-c5cccc(S(=O)(=O)NC(C)(C)C)c5)n4n3)cc2[nH]1 [Example 1328, N-tert-Butyl-3-[2-(2-ethyl-3H-benzimidazol-5-ylamino)-pyrrolo[2,1-f][1,2,4]triazin-7-yl]-benzenesulfonamide] | < 100 | 100 to 1000 |
| CC(C)c1nc2ccc(Nc3ncc4ccc(-c5cccc(S(=O)(=O)NC(C)(C)C)c5)n4n3)cc2[nH]1 [Example 1329, N-tert-Butyl-3-[2-(2-isopropyl-3H-benzimidazol-5-ylamino)-pyrrolo[2,1-f][1,2,4]triazin-7-yl]-benzenesulfonamide] | < 100 | 1000 to 10000 |
| CC(C)(C)NS(=O)(=O)c1cccc(-c2ccc3cnc(Nc4ccc5nc(C(C)(C)C)[nH]c5c4)nn23)c1 [Example 1330, N-tert-Butyl-3-[2-(2-tert-butyl-3H-benzimidazol-5-ylamino)-pyrrolo[2,1-f][1,2,4]triazin-7-yl]-benzenesulfonamide] | < 100 | 1000 to 10000 |
| Cc1nc2ccc(Nc3ncc4ccc(-c5cccc(S(=O)(=O)NC(C)(C)C)c5)n4n3)cc2n1C [Example 1331, N-tert-Butyl-3-[2-(2,3-dimethyl-3H-benzimidazol-5-ylamino)-pyrrolo[2,1-f][1,2,4]triazin-7-yl]-benzenesulfonamide] | < 100 | 100 to 1000 |
| Cn1cnc2cc(Nc3ncc4ccc(-c5cccc(S(=O)(=O)NC(C)(C)C)c5)n4n3)ccc21 [Example 1332, N-tert-Butyl-3-[2-(1-methyl-1H-benzimidazol-5-ylamino)-pyrrolo[2,1-f][1,2,4]triazin-7-yl]-benzenesulfonamide] | < 100 | > 10000 |
| CN(c1ccccc1-c1ccc2cnc(Nc3ccc4c(cnn4CCN4CCOCC4)c3)nn12)S(C)(=O)=O [Example 1333, N-Methyl-N-(2-{2-[1-(2-morpholin-4-yl-ethyl)-1H-indazol-5-ylamino]-pyrrolo[2,1-f][1,2,4]triazin-7-yl}-phenyl)-methanesulfonamide] | < 100 | 100 to 1000 |
| CN(c1ccccc1-c1ccc2cnc(Nc3ccc4cnn(CCN5CCOCC5)c4c3)nn12)S(C)(=O)=O [Example 1334, N-Methyl-N-(2-{2-[1-(2-morpholin-4-yl-ethyl)-1H-indazol-6-ylamino]-pyrrolo[2,1-f][1,2,4]triazin-7-yl}-phenyl)-methanesulfonamide] | < 100 | 1000 to 10000 |
| CN(c1ccccc1-c1ccc2cnc(Nc3ccc4c(c3)ncn4CCN3CCOCC3)nn12)S(C)(=O)=O [Example 1335, N-Methyl-N-(2-{2-[1-(2-morpholin-4-yl-ethyl)-1H-benzimidazol-5-ylamino]-pyrrolo[2,1-f][1,2,4]triazin-7-yl}-phenyl)-methanesulfonamide] | < 100 | 100 to 1000 |
| CN(c1ccccc1-c1ccc2cnc(Nc3ccc4ncn(CCN5CCOCC5)c4c3)nn12)S(C)(=O)=O [Example 1336, N-Methyl-N-(2-{2-[3-(2-morpholin-4-yl-ethyl)-3H-benzimidazol-5-ylamino]-pyrrolo[2,1-f][1,2,4]triazin-7-yl}-phenyl)-methanesulfonamide] | < 100 | 1000 to 10000 |
| CN(c1ccccc1-c1ccc2cnc(Nc3ccc4cn[nH]c4c3)nn12)S(C)(=O)=O [Example 1337, N-{2-[2-(1H-Indazol-6-ylamino)-pyrrolo[2,1-f][1,2,4]triazin-7-yl]-phenyl}-N-methyl-methanesulfonamide] | < 100 | 100 to 1000 |
| CN(c1ccccc1-c1ccc2cnc(Nc3ccc4[nH]ncc4c3)nn12)S(C)(=O)=O [Example 1338, N-{2-[2-(1H-Indazol-5-ylamino)-pyrrolo[2,1-f][1,2,4]triazin-7-yl]-phenyl}-N-methyl-methanesulfonamide] | < 100 | 100 to 1000 |
| CN(c1ccccc1-c1ccc2cnc(Nc3ccc4c(cnn4C)c3)nn12)S(C)(=O)=O [Example 1339, N-Methyl-N-{2-[2-(1-methyl-1H-indazol-5-ylamino)-pyrrolo[2,1-f][1,2,4]triazin-7-yl]-phenyl}-methanesulfonamide] | < 100 | 100 to 1000 |
| CN(c1ccccc1-c1ccc2cnc(Nc3ccc4cnn(C)c4c3)nn12)S(C)(=O)=O [Example 1340, N-Methyl-N-{2-[2-(1-methyl-1H-indazol-6-ylamino)-pyrrolo[2,1-f][1,2,4]triazin-7-yl]-phenyl}-methanesulfonamide] | < 100 | 100 to 1000 |
| CN(c1ccccc1-c1ccc2cnc(Nc3ccc4nc(C(C)(C)C)[nH]c4c3)nn12)S(C)(=O)=O [Example 1341, N-{2-[2-(2-tert-Butyl-3H-benzimidazol-5-ylamino)-pyrrolo[2,1-f][1,2,4]triazin-7-yl]-phenyl}-N-methyl-methanesulfonamide] | < 100 | 100 to 1000 |
